Test results as given in patent US20260159500A1, “KINESIN KIF18A INHIBITOR AND USE THEREOF” (SHANGHAI APEIRON THERAPEUTICS COMPANY LIMITED, priority 2022, published 2026).
Like-named read-outs stand apart in the source and are kept apart here.

Key:
HT29 cells = assay: CyQuant cell proliferation activity test in HT29 cells; type: cell-based; conditions: 2000 cells per well, 3 days incubation, IC50 by XLFIT, read-out: HT29_IC50_nM
Outline: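 Cells seeded at 2000/well in RPMI-1640 with 10% FBS, overnight, then exposed 3 days at 37 °C to compound from 3000 nM top, 3-fold, 9 points, 0.2% DMSO. CyQuant read after 1 h; IC50 from curve fit.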

[1] = molecular target: T1, Human KIF18A (amino acid sequence 1-417) (Homo sapiens, UniProt Q8NI77); assay: Enzymatic activity test (ADP-Glo, microtubule-stimulated KIF18A ATPase); type: biochemical; conditions: 60 μg/mL microtubules, 25 μM ATP, 2.5 nM KIF18A protein, 120 min at ambient temperature, read-out: KIF18A_nM
T1 construct: purchased Viva Biotech (Shanghai) Ltd
T1 sequence (Q8NI77 1-417): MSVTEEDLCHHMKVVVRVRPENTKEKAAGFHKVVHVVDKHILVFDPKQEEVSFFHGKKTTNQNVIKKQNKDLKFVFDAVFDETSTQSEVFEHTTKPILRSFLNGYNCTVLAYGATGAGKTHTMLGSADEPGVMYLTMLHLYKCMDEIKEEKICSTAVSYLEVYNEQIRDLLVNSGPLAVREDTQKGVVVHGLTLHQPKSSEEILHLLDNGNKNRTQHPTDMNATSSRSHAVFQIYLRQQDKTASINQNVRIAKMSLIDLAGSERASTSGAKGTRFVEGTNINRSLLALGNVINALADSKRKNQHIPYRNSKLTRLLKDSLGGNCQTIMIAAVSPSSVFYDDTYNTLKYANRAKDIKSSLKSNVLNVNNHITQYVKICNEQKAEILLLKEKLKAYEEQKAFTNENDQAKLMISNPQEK
Outline: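 Microtubule-stimulated ATPase of KIF18A(1-417) run with 60 μg/mL microtubules, 25 μM ATP and 2.5 nM enzyme, compounds at 0-10 μM final, 120 min at ambient temperature. ADP formed was read by ADP-Glo chemiluminescence after two 30-min reagent incubations.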

OVCAR3 cells = assay: Cell proliferation activity test in OVCAR3 cells (CyQUANT Direct); type: cell-based; conditions: 3 days incubation, CyQUANT fluorescence detection, read-out: OVCAR-3_IC50_nM
Outline: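 Log-phase cells in RPMI-1640 with 10% FBS were seeded overnight, then exposed to compound at final 0–10 μM (0.2% DMSO) for 3 days at 37 °C, 5% CO2. Proliferation was read by CyQUANT Direct fluorescence after 60 min at 37 °C.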

O=C(Nc1cc2ccc(O)nc2c(N2CCC(F)(F)CC2)c1F)c1ccc(NS(=O)(=O)CCO)cc1N1CCC2(CC1)CC2 [Example 76, N-(8-(4,4-difluoropiperidin-1-yl)-7-fluoro-2-hydroxyquinolin-6-yl)-4-((2-hydroxyethyl)sulfonamido)-2-(6-azaspiro[2.5]oct-6-yl)benzamide]
IC50 (HT29 cells; Homo sapiens, HT-29, 72 h): 0.031 µM | IC50 [1]: 0.046 µM | IC50 (OVCAR3 cells; Homo sapiens, OVCAR-3, 72 h): 0.034 µM

Nc1ccc2cc(NC(=O)c3ccc(NS(=O)(=O)CCO)cc3N3CCC4(CC3)CC4)c(F)c(N3CCC(F)(F)CC3)c2n1 [Example 78, N-(2-amino-8-(4,4-difluoropiperidin-1-yl)-7-fluoroquinolin-6-yl)-4-((2-hydroxyethyl)sulfonamido)-2-(6-azaspiro[2.5]octan-6-yl)benzamide]
IC50 (HT29 cells; Homo sapiens, HT-29, 72 h): 0.011 µM | IC50 [1]: 0.193 µM | IC50 (OVCAR3 cells; Homo sapiens, OVCAR-3, 72 h): 0.012 µM

CNc1ccc2cc(NC(=O)c3ccc(NS(=O)(=O)CCO)cc3N3CCC4(CC3)CC4)c(F)c(N3CCC(F)(F)CC3)c2n1 [Example 79, N-(8-(4,4-difluoropiperidin-1-yl)-7-fluoro-2-(methylamino)quinolin-6-yl)-4-((2-hydroxyethyl)sulfonamido)-2-(6-azaspiro[2.5]oct-6-yl)benzamide]
IC50 (HT29 cells; Homo sapiens, HT-29, 72 h): 0.055 µM | IC50 [1]: 0.943 µM | IC50 (OVCAR3 cells; Homo sapiens, OVCAR-3, 72 h): 0.047 µM

O=C(Nc1cc2cccnc2c(N2CCC(F)(F)CC2)c1F)c1cnc(NS(=O)(=O)CCO)cc1N1CCC2(CC1)CC2 [Example 80, N-(8-(4,4-difluoropiperidin-1-yl)-7-fluoroquinolin-6-yl)-6-((2-hydroxyethyl)sulfonamido)-4-(6-azaspiro[2.5]oct-6-yl)nicotinamide]
IC50 (HT29 cells; Homo sapiens, HT-29, 72 h): 0.02 µM | IC50 [1]: 0.009 µM | IC50 (OVCAR3 cells; Homo sapiens, OVCAR-3, 72 h): 0.018 µM

O=C(Nc1cc(N2CCC(F)(F)CC2)c2cnccc2c1)c1ccc(NS(=O)(=O)CCO)cc1N1CCC2(CC1)CC2 [Example 81, N-(8-(4,4-difluoropiperidin-1-yl)isoquinolin-6-yl)-4-(2-hydroxyethylsulfonamido)-2-(6-azaspiro[2.5]octan-6-yl)benzamide]
IC50 (HT29 cells; Homo sapiens, HT-29, 72 h): 0.008 µM | IC50 [1]: 0.035 µM | IC50 (OVCAR3 cells; Homo sapiens, OVCAR-3, 72 h): 0.018 µM

O=C(Nc1cc(N2CCC(F)(F)CC2)c2nnccc2c1)c1ccc(NS(=O)(=O)CCO)cc1N1CCC2(CC1)CC2 [Example 82, 2-{6-azaspiro[2.5]octan-6-yl}-N-[8-(4,4-difluoropiperidin-1-yl)misonin-6-yl]-4-(2-hydroxyethanesulfonamido)benzamide]
IC50 (HT29 cells; Homo sapiens, HT-29, 72 h): 0.014 µM | IC50 [1]: 0.033 µM | IC50 (OVCAR3 cells; Homo sapiens, OVCAR-3, 72 h): 0.013 µM

Nc1ncc2cc(NC(=O)c3ccc(NS(=O)(=O)CCO)cc3N3CCC4(CC3)CC4)cc(N3CCC(F)(F)CC3)c2n1 [Example 84, N-(2-amino-8-(4,4-difluoropiperidin-1-yl)quinazolin-6-yl)-4-((2-hydroxyethyl)sulfonamido)-2-(6-azaspiro[2.5]oct-6-yl)benzamide]
IC50 (HT29 cells; Homo sapiens, HT-29, 72 h): 0.025 µM | IC50 [1]: 0.04 µM | IC50 (OVCAR3 cells; Homo sapiens, OVCAR-3, 72 h): 0.011 µM

CCOC(=O)c1cnc2c(N3CCC(F)(F)CC3)cc(NC(=O)c3ccc(NS(=O)(=O)CCO)cc3N3CCC4(CC3)CC4)cc2c1 [Example 86, Ethyl 6-(2-{6-azaspiro[2.5]octan-6-yl}-4-(2-hydroxyethanesulfonamido)benzoylamino)-8-(4,4-difluoropiperidin-1-yl)quinoline-3-carboxylate]
IC50 (HT29 cells; Homo sapiens, HT-29, 72 h): 0.056 µM | IC50 [1]: 0.223 µM | IC50 (OVCAR3 cells; Homo sapiens, OVCAR-3, 72 h): 0.034 µM

O=C(O)c1cnc2c(N3CCC(F)(F)CC3)cc(NC(=O)c3ccc(NS(=O)(=O)CCO)cc3N3CCC4(CC3)CC4)cc2c1 [Example 87, 6-(2-{6-azaspiro[2.5]octan-6-yl}-4-(2-hydroxyethanesulfonamido)benzoylamino)-8-(4,4-difluoropiperidin-1-yl)quinoline-3-carboxylic acid]
IC50 (HT29 cells; Homo sapiens, HT-29, 72 h): > 3 µM | IC50 [1]: 0.01 µM | IC50 (OVCAR3 cells; Homo sapiens, OVCAR-3, 72 h): > 3 µM

NC(=O)c1cnc2c(N3CCC(F)(F)CC3)cc(NC(=O)c3ccc(NS(=O)(=O)CCO)cc3N3CCC4(CC3)CC4)cc2c1 [Example 88, 6-(2-{6-azaspiro[2.5]octan-6-yl}-4-(2-hydroxyethanesulfonamido)benzoylamino)-8-(4,4-difluoropiperidin-1-yl)quinoline-3-carboxamide]
IC50 (HT29 cells; Homo sapiens, HT-29, 72 h): 0.425 µM | IC50 [1]: 0.041 µM | IC50 (OVCAR3 cells; Homo sapiens, OVCAR-3, 72 h): 0.154 µM

Cc1cc2cc(NC(=O)c3ccc(NS(=O)(=O)CCO)cc3N3CCC4(CC3)CC4)cc(N3CCC(F)(F)CC3)c2nc1N [Example 89, N-[2-Amino-8-(4,4-difluoropiperidinyl)-3-methyl (6-quinolinyl)](2-(6-azaspiro[2.5]octan-6-yl)-4-{[(2-hydroxyethyl)sulfonyl]amino}phenyl)formamide]
IC50 (HT29 cells): 0.032 µM | IC50 [1]: 0.179 µM | IC50 (OVCAR3 cells): 0.032 µM

Cc1cnc2c(N3CCC(F)(F)CC3)c(F)c(NC(=O)c3ccc(NS(=O)(=O)CCO)cc3N3CCC4(CC3)CC4)cc2c1 [Example 90, 2-{6-azaspiro[2.5]octan-6-yl}-N-[8-(4,4-difluoropiperidin-1-yl)-7-fluoro-3-methylquinolin-6-yl]-4-(2-hydroxyethanesulfonamido)benzamide]
IC50 (HT29 cells; Homo sapiens, HT-29, 72 h): 0.106 µM | IC50 [1]: 0.341 µM | IC50 (OVCAR3 cells; Homo sapiens, OVCAR-3, 72 h): 0.096 µM

Nc1cnc2c(N3CCC(F)(F)CC3)c(F)c(NC(=O)c3ccc(NS(=O)(=O)CCO)cc3N3CCC4(CC3)CC4)cc2c1 [Example 91, N-[3-amino-8-(4,4-difluoropiperidin-1-yl)-7-fluoroquinolin-6-yl]-2-{6-azaspiro[2.5]octan-6-yl}-4-(2-hydroxyethanesulfonamido)benzamide]
IC50 (HT29 cells; Homo sapiens, HT-29, 72 h): 0.016 µM | IC50 [1]: 0.173 µM | IC50 (OVCAR3 cells; Homo sapiens, OVCAR-3, 72 h): 0.013 µM

C[C@H](CO)S(=O)(=O)Nc1ccc(C(=O)Nc2cc3cccnc3c(N3CCC(F)(F)CC3)n2)c(N2CCC3(CC2)CC3)c1 [Example 96, 2-{6-Azaspiro[2.5]octan-6-yl}-N-[8-(4,4-difluoropiperidin-1-yl)-1,7-naphthyridin-6-yl]-4-[(2R)-1-hydroxypropane-2-sulfonamido]benzamide]
IC50 (HT29 cells; Homo sapiens, HT-29, 72 h): 0.017 µM | IC50 [1]: 0.153 µM | IC50 (OVCAR3 cells; Homo sapiens, OVCAR-3, 72 h): 0.0113 µM

C[C@@H](CO)S(=O)(=O)Nc1ccc(C(=O)Nc2cc3cccnc3c(N3CCC(F)(F)CC3)n2)c(N2CCC3(CC2)CC3)c1 [Example 97, 2-{6-azaspiro[2.5]octan-6-yl}-N-[8-(4,4-difluoropiperidin-1-yl)-1,7-naphthyridin-6-yl]-4-[(2S)-1-hydroxypropane-2-sulfonamido]benzamide]
IC50 (HT29 cells; Homo sapiens, HT-29, 72 h): 0.017 µM | IC50 [1]: 0.153 µM | IC50 (OVCAR3 cells; Homo sapiens, OVCAR-3, 72 h): 0.0139 µM

C[C@H](CO)S(=O)(=O)Nc1ccc(C(=O)Nc2cc3cccnc3c(N3CCC(F)(F)CC3)c2F)c(N2CCC3(CC2)CC3)c1 [Example 98, 2-{6-azaspiro[2.5]octan-6-yl}-N-[8-(4,4-difluoropiperidin-1-yl)-7-fluoroquinolin-6-yl]-4-[(2R)-1-hydroxypropane-2-sulfonamido]benzamide]
IC50 (HT29 cells; Homo sapiens, HT-29, 72 h): 0.021 µM | IC50 [1]: 0.166 µM | IC50 (OVCAR3 cells; Homo sapiens, OVCAR-3, 72 h): 0.017 µM

C[C@@H](CO)S(=O)(=O)Nc1ccc(C(=O)Nc2cc3cccnc3c(N3CCC(F)(F)CC3)c2F)c(N2CCC3(CC2)CC3)c1 [Example 99, 2-{6-azaspiro[2.5]octan-6-yl}-N-[8-(4,4-difluoropiperidin-1-yl)-7-fluoroquinolin-6-yl]-4-[(2S)-1-hydroxypropane-2-sulfonamido]benzamide]
IC50 (HT29 cells; Homo sapiens, HT-29, 72 h): 0.022 µM | IC50 [1]: 0.174 µM | IC50 (OVCAR3 cells; Homo sapiens, OVCAR-3, 72 h): 0.017 µM

O=C(Nc1ccc(NS(=O)(=O)CCO)cc1N1CCC2(CC1)CC2)c1cc(N2CCC(F)(F)CC2)c2ncccc2c1 [Example 100, N-(2-{6-azaspiro[2.5]octan-6-yl}-4-(2-hydroxyethanesulfonamido)phenyl)-8-(4,4-difluoropiperidin-1-yl)quinoline-6-carboxamide]
IC50 (HT29 cells; Homo sapiens, HT-29, 72 h): 0.012 µM | IC50 [1]: 0.024 µM | IC50 (OVCAR3 cells; Homo sapiens, OVCAR-3, 72 h): 0.011 µM
